Data from patent publication US11130741B2 (Bioimics AB, priority 2016, dated 2021).
Converted amounts (≈) assume the structure as drawn. Structures can show the parent of a compound that is named as a salt. Where two headings read alike, the source gives them in different places.

Tests used:
[1] = test system: E. coli RNase P RNA, M1 RNA; assay: Inhibition of bacterial RNase P activity, IC50 determination (cleavage of pATSerUG by M1 RNA); format: biochemical; conditions: NI = No inhibition
[2] = test system: Staphylococcus aureus (ATCC25923); assay: MIC, broth microdilution (CLSI), Staphylococcus aureus ATCC25923
[3] = test system: Escherichia coli (ATCC25922); assay: MIC, broth microdilution (CLSI), Escherichia coli ATCC25922
[4] = ATCC25923, read-out: S. aureus ("Clinical") MIC
[5] = ATCC25922, read-out: E. coli MIC, Table 15, NI = No inhibition

SMILES	IC50 [1]	MIC [2, 4]	MIC [3, 5]	IC50 ([1]; trifluoroacetate)	MIC ([2]; ATCC25923, read-out: S. aureus ("Clinical") MIC, Table 15)	MIC ([3]; ATCC25922, read-out: E. coli MIC)
N#Cc1cc(NC(=O)C2CCCC(N)C2)c2c(c1)Sc1ccccc1N2 (stereo not drawn) [compound 119, 3-amino-N-(3-cyano-10H-phenothiazin-1-yl)cyclohexane-carboxamide]	> 100 µM	93 µg/mL (≈ 255 µM)	> 100 µg/mL			
CN(C)CCCN1c2ccccc2Sc2cc(-c3ccc4[nH]ccc4c3)ccc21 [compound 121, 3-(3-(1H-indol-5-yl)-10H-phenothiazin-10-yl)-N,N-dimethylpropan-1-amine]	> 100 µM	6 µg/mL (≈ 15 µM)	> 100 µg/mL			
CN(C)CCCN1c2ccccc2Sc2cc(-c3ccnc(F)c3)ccc21 [compound 122, 3-(3-(2-fluoropyridin-4-yl)-10H-phenothiazin-10-yl)-N,N-dimethylpropan-1-amine]	> 100 µM	24 µg/mL (≈ 63.2 µM)	> 100 µg/mL			
NC1CCCC(C(=O)Nc2cc(C(F)(F)F)cc3c2Nc2cc(F)ccc2S3)C1.O=C(O)C(F)(F)F (stereo not drawn) [compound 124, 3-Amino-N-(8-fluoro-3-(trifluoromethyl)-10H-phenothiazin-1-yl)cyclohexane carboxamide. TFA Salt]	59 µM	17 µg/mL	35 µg/mL			
CN(C)CCCN1c2ccc(Cl)cc2Sc2cccnc21 [compound 126, 3-(7-chloro-10H-benzo[b]pyrido [2,3-e][1,4]thiazin-10-yl)-N,N-dimethyl-propan-1-amine]	> 100 µM	82 µg/mL (≈ 256 µM)	> 100 µg/mL			
CN(C)CCCN1c2ccccc2Sc2cc(-c3cccc4cn[nH]c34)ccc21 [compound 129, 3-(3-(1H-indazol-7-yl)-10H-phenothiazin-10-yl)-N,N-dimethylpropan-1-amine]	> 100 µM	6 µg/mL (≈ 15 µM)	> 100 µg/mL			
O=C(CC1CCC(F)(F)CC1)Nc1cc(C(F)(F)F)cc2c1Nc1ccccc1S2 [compound 132, 2-(4,4-difluorocyclo-hexyl)-N-(3-(trifluoromethyl)-10H-phenothiazin-1-yl)acetamide]	> 100 µM	4 µg/mL (≈ 9.04 µM)	> 100 µg/mL			
Nc1cccc(C(=O)Nc2cc(C(F)(F)F)cc3c2Nc2ccccc2S3)c1 [compound 134, 3-amino-N-(3-(trifluoromethyl)-10H-phenothiazin-1-yl)benzamide]	> 100 µM	6 µg/mL (≈ 14.9 µM)	> 100 µg/mL			
CN(C)CCCN1c2ccccc2Sc2cc(-c3nc4ccccc4[nH]3)ccc21 [compound 137, 3-(3-(1H-benzo[d]imidazol-2-yl)-10H-phenothiazin-10-yl)-N,N-dimethylpropan-1-amine]	160 µM	13 µg/mL (≈ 32.5 µM)	> 100 µg/mL			
CN(C)CCCN1c2ccccc2Sc2cc(-c3nc4ccccc4s3)ccc21 [compound 143, 3-(3-(Benzo[d]thiazol-2-yl)-10H-phenothiazin-10-yl)-N,N-dimethylpropan-1-amine]	> 100 µM	3 µg/mL (≈ 7.18 µM)	> 100 µg/mL			
COc1ccc2[nH]c(-c3ccc4c(c3)Sc3ccccc3N4CCCN(C)C)cc2c1 [compound 144, 3-(3-(5-methoxy-1H-indol-2-yl)-10H-phenothiazin-10-yl)-N,N-dimethylpropan-1-amine]	> 100 µM	3 µg/mL (≈ 6.98 µM)	> 100 µg/mL			
O=C(Nc1cc(C(F)(F)F)cc2c1Nc1ccccc1S2)C1CCCC(O)C1 (stereo not drawn) [compound 148, 3-hydroxy-N-(3-(trifluoromethyl)-10H-phenothiazin-1-yl)cyclohexane-carboxamide]	> 100 µM	26 µg/mL (≈ 63.7 µM)	> 100 µg/mL			
CN(C)CCCN1c2ccccc2Sc2cc(-c3cc4cc(O)ccc4[nH]3)ccc21 [compound 152, 2-(10-(3-(dimethylamino)propyl)-10H-phenothiazin-3-yl)-1H-indol-5-ol]	> 100 µM	13 µg/mL (≈ 31.3 µM)	> 100 µg/mL			
COc1cc(-c2ccc3c(c2)Sc2ccccc2N3CCCN(C)C)ccn1 [compound 153, 3-(3-(2-methoxypyridin-4-yl)-10H-phenothiazin-10-yl)-N,N-dimethylpropan-1-amine]	> 100 µM	25 µg/mL (≈ 63.9 µM)	> 100 µg/mL			
NCCN1CCC(C(=O)Nc2cc(C(F)(F)F)cc3c2Nc2ccccc2S3)CC1 [compound 155, trifluoroacetate]				53 µM	35 µg/mL	35 µg/mL
NC1CCCC(C(=O)Nc2cc(C(F)(F)F)cc3c2Nc2ccccc2O3)C1 (stereo not drawn) [compound 156, 3-amino-N-(3-(trifluoromethyl)-10H-phenoxazin-1-yl)cyclohexane-carboxamide]	> 100 µM	13 µg/mL (≈ 33.2 µM)	25 µg/mL (≈ 63.9 µM)			
FC(F)(F)c1cc(NC[C@@H]2COCCN2)c2c(c1)Sc1ccccc1N2 [compound 159, (R)-N-(morpholin-3-ylmethyl)-3-(trifluoromethyl)-10H-phenothiazin-1-amine]	> 100 µM	12 µg/mL (≈ 31.5 µM)	> 100 µg/mL			
NC1CCCC(CC(=O)Nc2cc(C(F)(F)F)cc3c2Nc2ccccc2S3)C1 (stereo not drawn) [compound 167, 2-(3-aminocyclohexyl)-N-(3-(trifluoromethyl)-10H-phenothiazin-1-yl)acetamide]	> 100 µM	13 µg/mL (≈ 30.8 µM)	27 µg/mL (≈ 64.1 µM)			

Further molecules by falling IC50 [1], results first:

IC50 [1]	MIC [2, 4]	MIC [3, 5]	SMILES	IC50 ([1]; trifluoroacetate)	MIC ([2]; ATCC25923, read-out: S. aureus ("Clinical") MIC, Table 15)	MIC ([3]; ATCC25922, read-out: E. coli MIC)
72 µM	14 µg/mL (≈ 31.1 µM)	14 µg/mL (≈ 31.1 µM)	NCCNC1CCCC(C(=O)Nc2cc(C(F)(F)F)cc3c2Nc2ccccc2S3)C1 (stereo not drawn) [compound 163, 3-((2-aminoethyl)amino)-N-(3-(trifluoromethyl)-10H-phenothiazin-1-yl)cyclohexane-carboxamide]			
68 µM	24 µg/mL (≈ 64.2 µM)	96 µg/mL (≈ 257 µM)	NC1CCCC(C(=O)Nc2cc(Cl)cc3c2Nc2ccccc2S3)C1 (stereo not drawn) [compound 161, 3-amino-N-(3-chloro-10H-phenothiazin-1-yl)cyclohexane-carboxamide]			
60 µM	26 µg/mL (≈ 64.1 µM)	52 µg/mL (≈ 128 µM)	NC[C@H]1CC[C@H](C(=O)Nc2cc(C(F)(F)F)cc3c2Nc2ccccc2O3)CC1 [compound 160, (1r,4r)-4-(aminomethyl)-N-(3-(trifluoromethyl)-10H-phenoxazin-1-yl)cyclohexane-carboxamide]			
59 µM	3 µg/mL (≈ 7.1 µM)	7 µg/mL (≈ 16.6 µM)	NC1CC(N)CC(C(=O)Nc2cc(C(F)(F)F)cc3c2Nc2ccccc2S3)C1 (stereo not drawn) [compound 170, 3,5-diamino-N-(3-(trifluoromethyl)-10H-phenothiazin-1-yl)cyclohexane-carboxamide]			
59 µM	24 µg/mL (≈ 63.2 µM)	> 100 µg/mL	FC(F)(F)c1cc(NCC2CCNCC2)c2c(c1)Sc1ccccc1N2 [compound 173, N-(piperidin-4-ylmethyl)-3-(trifluoromethyl)-10H-phenothiazin-1-amine]			
57 µM	7 µg/mL (≈ 16.8 µM)	> 100 µg/mL	CN(C)CCCN1c2ccccc2Sc2cc(-c3ccc4scnc4c3)ccc21 [compound 130, 3-(3-(benzo[d]thiazol-5-yl)-10H-phenothiazin-10-yl)-N,N-dimethylpropan-1-amine]			
53 µM	3 µg/mL (≈ 7.36 µM)	52 µg/mL (≈ 128 µM)	NCC1CCC(CNc2cc(C(F)(F)F)cc3c2Nc2ccccc2S3)CC1 (stereo not drawn) [compound 158, N-((4-(aminomethyl)cyclohexyl)methyl)-3-(trifluoromethyl)-10H-phenothiazin-1-amine]			
50 µM	30 µg/mL (≈ 64.6 µM)	> 100 µg/mL	NCCCNC1CCCC(C(=O)Nc2cc(C(F)(F)F)cc3c2Nc2ccccc2S3)C1 (stereo not drawn) [compound 162, 3-((3-aminopropyl)amino)-N-(3-(trifluoromethyl)-10H-phenothiazin-1-yl)cyclohexane-carboxamide]			
50 µM	3 µg/mL (≈ 8.54 µM)	11 µg/mL (≈ 31.3 µM)	FC(F)(F)c1cc(NC2CCNC2)c2c(c1)Sc1ccccc1N2 (stereo not drawn) [compound 174, N-(pyrrolidin-3-yl)-3-(trifluoromethyl)-10H-phenothiazin-1-amine]			
42 µM	3 µg/mL (≈ 7.62 µM)	13 µg/mL (≈ 33 µM)	N[C@@H]1CCC[C@@H](CNc2cc(C(F)(F)F)cc3c2Nc2ccccc2S3)C1 [compound 171, N-(((1R,3R)-3-aminocyclohexyl)methyl)-3-(trifluoromethyl)-10H-phenothiazin-1-amine]			
36 µM	11 µg/mL (≈ 31.5 µM)	45 µg/mL (≈ 129 µM)	FC(F)(F)c1cc(NC2CCNCC2)c2c(c1)Oc1ccccc1N2 [compound 169, N-(piperidin-4-yl)-3-(trifluoromethyl)-10H-phenoxazin-1-amine]			
27 µM	6 µg/mL (≈ 16.4 µM)	23 µg/mL (≈ 62.9 µM)	FC(F)(F)c1cc(NC2CCCNC2)c2c(c1)Sc1ccccc1N2 (stereo not drawn) [compound 172, N-(piperidin-3-yl)-3-(trifluoromethyl)-10H-phenothiazin-1-amine]			
20 µM	13 µg/mL (≈ 31.9 µM)	26 µg/mL (≈ 63.8 µM)	N[C@@H]1CCC[C@H](C(=O)Nc2cc(C(F)(F)F)cc3c2Nc2ccccc2S3)C1 [compound 125, (1S,3R)-3-amino-N-(3-(trifluoromethyl)-10H-phenothiazin-1-yl)cyclohexane-carboxamide]			
17 µM	13 µg/mL (≈ 31.9 µM)	26 µg/mL (≈ 63.8 µM)	N[C@H]1CCC[C@@H](C(=O)Nc2cc(C(F)(F)F)cc3c2Nc2ccccc2S3)C1 [compound 118, (1R,3S)-3-amino-N-(3-(trifluoromethyl)-10H-phenothiazin-1-yl)cyclohexane-carboxamide]			
15 µM	13 µg/mL (≈ 30.8 µM)	54 µg/mL (≈ 128 µM)	NCC1CCCC(C(=O)Nc2cc(C(F)(F)F)cc3c2Nc2ccccc2S3)C1 (stereo not drawn) [compound 149, 3-(aminomethyl)-N-(3-(trifluoromethyl)-10H-phenothiazin-1-yl)cyclohexane-carboxamide]			
12 µM	27 µg/mL (≈ 64.1 µM)	> 100 µg/mL	NC[C@H]1CC[C@H](C(=O)Nc2cc(C(F)(F)F)cc3c2Nc2ccccc2S3)CC1 [compound 120, (1R,4R)-4-(aminomethyl)-N-(3-(trifluoromethyl)-10H-phenothiazin-1-yl)cyclohexane-carboxamide]			
